Values quoted from earlier work as cited in patent US20250114351A1, “5-HT2C RECEPTOR MODULATING AGENTS FOR THE TREATMENT OF NEURODEGENERATIVE, MENTAL, COGNITIVE AND AUTOIMMUNE CNS DISORDERS” (priority 2022, published 2025).

Assays:
5-HT2A = 5-HT2A (Homo sapiens, UniProt P28223)
5-HT2C = target: T1, 5-HT2C (Homo sapiens, UniProt P28335)
T1 sequence (P28335 33-458): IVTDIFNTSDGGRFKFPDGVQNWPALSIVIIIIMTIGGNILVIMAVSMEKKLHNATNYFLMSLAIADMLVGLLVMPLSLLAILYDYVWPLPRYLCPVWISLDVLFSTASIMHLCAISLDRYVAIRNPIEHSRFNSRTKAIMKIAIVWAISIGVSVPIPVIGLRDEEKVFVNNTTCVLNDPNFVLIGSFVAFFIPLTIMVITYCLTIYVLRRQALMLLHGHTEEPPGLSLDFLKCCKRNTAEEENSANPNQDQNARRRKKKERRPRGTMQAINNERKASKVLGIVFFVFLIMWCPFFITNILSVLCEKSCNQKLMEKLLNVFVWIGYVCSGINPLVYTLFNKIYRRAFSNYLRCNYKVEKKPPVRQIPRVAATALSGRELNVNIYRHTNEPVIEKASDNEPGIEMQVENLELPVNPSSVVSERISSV

5-HT2B = 5-HT2B (Homo sapiens, UniProt P41595)
Chain of 5-HT2B (P41595 whole entry, species assumed): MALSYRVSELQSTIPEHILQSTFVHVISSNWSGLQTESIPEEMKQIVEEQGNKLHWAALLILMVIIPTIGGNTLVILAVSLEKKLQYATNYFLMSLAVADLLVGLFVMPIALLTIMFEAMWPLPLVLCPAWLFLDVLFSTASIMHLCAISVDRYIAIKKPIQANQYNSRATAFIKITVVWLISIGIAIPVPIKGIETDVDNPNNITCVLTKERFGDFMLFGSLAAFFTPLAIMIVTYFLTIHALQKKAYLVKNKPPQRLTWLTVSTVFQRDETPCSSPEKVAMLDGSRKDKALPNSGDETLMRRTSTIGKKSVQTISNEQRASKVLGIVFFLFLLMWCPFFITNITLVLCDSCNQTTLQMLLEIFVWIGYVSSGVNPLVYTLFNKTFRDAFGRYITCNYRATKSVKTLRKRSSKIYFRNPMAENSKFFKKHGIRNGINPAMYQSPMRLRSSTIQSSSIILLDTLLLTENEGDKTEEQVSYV

Chain of 5-HT2A (P28223 whole entry, species assumed): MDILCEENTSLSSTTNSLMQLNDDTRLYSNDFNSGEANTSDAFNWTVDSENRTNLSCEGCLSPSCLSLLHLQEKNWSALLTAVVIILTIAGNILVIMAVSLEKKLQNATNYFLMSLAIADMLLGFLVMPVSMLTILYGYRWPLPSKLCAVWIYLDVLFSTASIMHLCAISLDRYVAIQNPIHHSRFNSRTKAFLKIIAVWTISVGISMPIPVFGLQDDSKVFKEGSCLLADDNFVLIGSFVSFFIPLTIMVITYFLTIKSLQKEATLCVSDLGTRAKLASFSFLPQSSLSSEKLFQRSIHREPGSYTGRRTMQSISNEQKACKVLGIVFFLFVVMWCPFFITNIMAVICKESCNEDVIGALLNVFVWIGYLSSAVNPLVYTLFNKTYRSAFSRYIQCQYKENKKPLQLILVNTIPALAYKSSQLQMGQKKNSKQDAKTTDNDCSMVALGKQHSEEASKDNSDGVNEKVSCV

Row | SMILES | 5-HT2A Emax (5-HT2A) [%] | EC50 (5-HT2A) [nM] | 5-HT2C Emax (5-HT2C) [%] | 5-HT2B Emax (5-HT2B) [%] | EC50 (5-HT2B) [nM]
1 | Clc1cccc(COc2cncc(N3CCNCC3)n2)c1 [CP-809101, 2-(3-Chlorobenzyloxy)-6-(piperazin-1-yl)pyrazine] | 67 | 153 | – | – | –
2 | C[C@H]1CNCCc2ccc(Cl)cc21 [Lorcaserin, (1R)-8-chloro-2,3,4,5-tetrahydro-1-methyl-1H-3-benzazepine] | 75 | – | 100 | – | –
3 | C[C@H](N)Cn1ccc2cc(F)c(Cl)cc21 [RO 60-01752, (S)-2-(6-chloro-5-fluoroindol-1-yl)-1-methylethylamine] | 91 ± 5 | – | 88 ± 20 | 130 ± 30 | –
4 | c1cc2c3c(c1)[C@H]1CCC[C@H]1CN3CCNC2 [Vabicaserin] | – | 1650 | – | – | –
5 | c1cc2c3c(c1)[C@H]1CCC[C@H]1N3CCNC2 [WAY-163909, (7bR,10aR)-1,2,3,4,8,9,10,10a-octahydro-7bH-cyclopenta-[b][1,4]diazepino[6,7,1hi]indole] | – | – | – | – | 185 ± 105
